Laboratory results reported in PubChem BioAssay AID2060627 (Molecular Pharmacology Branch, DTP, NCI, 2025).
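Note: spheroids exposed to the agents for seven days; 100% = DMSO vehicle control viability.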

These compounds were tested on 156681-154-R-J1-PDC complex spheroid viability (assay: Anticancer human tumor 156681-154-R-J1-PDC patient-derived melanoma cell line growth inhibition [CLK]). Settings: second compound 1 µM; first compound 0.1 µM; active compounds read low.
In short: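 Multi-cell-type spheroids combined patient-derived tumor cells with HUVEC endothelial cells and human mesenchymal stem cells. Paired agents were dosed in half-log steps down from about clinical Cmax, or from 10 microM where Cmax was unknown.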
Work on `COC1C=CCC(C)C(C)S(=O)(=O)NC(=O)c2ccc3c(c2)N(CC2CCC21)CC1(CCCc2cc(Cl)ccc21)CO3` (stereo unspecified) + CN1CCN(c2cc(C(=O)Nc3cc4cc(-c5cnn(C)c5)ccc4cn3)ccn2)CC1 yielded a viability, T/C of 0.34%.

Same assay, conditions: second compound 1 µM; first compound 0.316 µM; active compounds read low
In the case of `CCc1c2c(nc3ccc(O)cc13)-c1cc3c(c(=O)n1C2)COC(=O)[C@]3(O)CC` + CNC(=O)c1ccc(Nc2nc(OC3CCCC3)c3c(-c4ccc5nc(C)oc5c4)c[nH]c3n2)c(OC)c1, the viability, T/C is reported as 9.49%.
For `CC(CO)NC(=O)c1cc(-c2ccc(Cl)cc2)nn(-c2cnn(C)c2)c1=O` (stereo unspecified) + CNC(=O)c1ccc(Nc2nc(OC3CCCC3)c3c(-c4ccc5nc(C)oc5c4)c[nH]c3n2)c(OC)c1, the viability, T/C was 37.6%.
With `Nc1ccn(C2OC(CO)C(O)C2(F)F)c(=O)n1` (stereo unspecified) + CN1CCN(c2cc(C(=O)Nc3cc4cc(-c5cnn(C)c5)ccc4cn3)ccn2)CC1 the viability, T/C was 0.37%.
With `COc1ccc([C@@H](O)c2cc(-c3ncnc4cc(N5CCOCC5)ccc34)c(F)cc2Cl)nn1` + CNC(=O)c1ccc(Nc2nc(OC3CCCC3)c3c(-c4ccc5nc(C)oc5c4)c[nH]c3n2)c(OC)c1 the viability, T/C was 47.7%.
Work on `COC1C=CCC(C)C(C)S(=O)(=O)NC(=O)c2ccc3c(c2)N(CC2CCC21)CC1(CCCc2cc(Cl)ccc21)CO3` (stereo unspecified) + CN1CCN(c2cc(C(=O)Nc3cc4cc(-c5cnn(C)c5)ccc4cn3)ccn2)CC1 yielded a viability, T/C of 0.18%.

Same assay, conditions: second compound 1 µM; first compound 1 µM; active compounds read low
`CCc1c2c(nc3ccc(O)cc13)-c1cc3c(c(=O)n1C2)COC(=O)[C@]3(O)CC` + CNC(=O)c1ccc(Nc2nc(OC3CCCC3)c3c(-c4ccc5nc(C)oc5c4)c[nH]c3n2)c(OC)c1 showed a viability, T/C of 5.41%.
`CC(CO)NC(=O)c1cc(-c2ccc(Cl)cc2)nn(-c2cnn(C)c2)c1=O` (stereo unspecified) + CNC(=O)c1ccc(Nc2nc(OC3CCCC3)c3c(-c4ccc5nc(C)oc5c4)c[nH]c3n2)c(OC)c1 was tested, and the viability, T/C was 44.8%.
Work on `Nc1ccn(C2OC(CO)C(O)C2(F)F)c(=O)n1` (stereo unspecified) + CN1CCN(c2cc(C(=O)Nc3cc4cc(-c5cnn(C)c5)ccc4cn3)ccn2)CC1 yielded a viability, T/C of 1.65%.
Work on `COc1ccc([C@@H](O)c2cc(-c3ncnc4cc(N5CCOCC5)ccc34)c(F)cc2Cl)nn1` + CNC(=O)c1ccc(Nc2nc(OC3CCCC3)c3c(-c4ccc5nc(C)oc5c4)c[nH]c3n2)c(OC)c1 yielded a viability, T/C of 29.2%.
With `COC1C=CCC(C)C(C)S(=O)(=O)NC(=O)c2ccc3c(c2)N(CC2CCC21)CC1(CCCc2cc(Cl)ccc21)CO3` (stereo unspecified) + CN1CCN(c2cc(C(=O)Nc3cc4cc(-c5cnn(C)c5)ccc4cn3)ccn2)CC1 the viability, T/C was 0.14%.

Same assay, conditions: second compound 1 µM; first compound 3.16 µM; active compounds read low
`CC(CO)NC(=O)c1cc(-c2ccc(Cl)cc2)nn(-c2cnn(C)c2)c1=O` (stereo unspecified) + CNC(=O)c1ccc(Nc2nc(OC3CCCC3)c3c(-c4ccc5nc(C)oc5c4)c[nH]c3n2)c(OC)c1 showed a viability, T/C of 39.2%.
For `Nc1ccn(C2OC(CO)C(O)C2(F)F)c(=O)n1` (stereo unspecified) + CN1CCN(c2cc(C(=O)Nc3cc4cc(-c5cnn(C)c5)ccc4cn3)ccn2)CC1, the viability, T/C was 0.78%.
Work on `COc1ccc([C@@H](O)c2cc(-c3ncnc4cc(N5CCOCC5)ccc34)c(F)cc2Cl)nn1` + CNC(=O)c1ccc(Nc2nc(OC3CCCC3)c3c(-c4ccc5nc(C)oc5c4)c[nH]c3n2)c(OC)c1 yielded a viability, T/C of 32.8%.
For `COC1C=CCC(C)C(C)S(=O)(=O)NC(=O)c2ccc3c(c2)N(CC2CCC21)CC1(CCCc2cc(Cl)ccc21)CO3` (stereo unspecified) + CN1CCN(c2cc(C(=O)Nc3cc4cc(-c5cnn(C)c5)ccc4cn3)ccn2)CC1, the viability, T/C was 0.12%.

Same assay, conditions: second compound 1 µM; first compound 10 µM; active compounds read low
`CC(CO)NC(=O)c1cc(-c2ccc(Cl)cc2)nn(-c2cnn(C)c2)c1=O` (stereo unspecified) + CNC(=O)c1ccc(Nc2nc(OC3CCCC3)c3c(-c4ccc5nc(C)oc5c4)c[nH]c3n2)c(OC)c1 showed a viability, T/C of 35.3%.
Work on `Nc1ccn(C2OC(CO)C(O)C2(F)F)c(=O)n1` (stereo unspecified) + CN1CCN(c2cc(C(=O)Nc3cc4cc(-c5cnn(C)c5)ccc4cn3)ccn2)CC1 yielded a viability, T/C of 1.59%.
With `COc1ccc([C@@H](O)c2cc(-c3ncnc4cc(N5CCOCC5)ccc34)c(F)cc2Cl)nn1` + CNC(=O)c1ccc(Nc2nc(OC3CCCC3)c3c(-c4ccc5nc(C)oc5c4)c[nH]c3n2)c(OC)c1 the viability, T/C was 9.5%.
`COC1C=CCC(C)C(C)S(=O)(=O)NC(=O)c2ccc3c(c2)N(CC2CCC21)CC1(CCCc2cc(Cl)ccc21)CO3` (stereo unspecified) + CN1CCN(c2cc(C(=O)Nc3cc4cc(-c5cnn(C)c5)ccc4cn3)ccn2)CC1 showed a viability, T/C of 2.25%.

Same assay, conditions: second compound 3.16 µM; first compound 0.00316 µM; active compounds read low
Work on `CCc1c2c(nc3ccc(O)cc13)-c1cc3c(c(=O)n1C2)COC(=O)[C@]3(O)CC` + CNC(=O)c1ccc(Nc2nc(OC3CCCC3)c3c(-c4ccc5nc(C)oc5c4)c[nH]c3n2)c(OC)c1 yielded a viability, T/C of 20.9%.

Same assay, conditions: second compound 3.16 µM; first compound 0.01 µM; active compounds read low
`CCc1c2c(nc3ccc(O)cc13)-c1cc3c(c(=O)n1C2)COC(=O)[C@]3(O)CC` + CNC(=O)c1ccc(Nc2nc(OC3CCCC3)c3c(-c4ccc5nc(C)oc5c4)c[nH]c3n2)c(OC)c1 was tested, and the viability, T/C was 15.8%.

Same assay, conditions: second compound 3.16 µM; first compound 0.0316 µM; active compounds read low
For `CCc1c2c(nc3ccc(O)cc13)-c1cc3c(c(=O)n1C2)COC(=O)[C@]3(O)CC` + CNC(=O)c1ccc(Nc2nc(OC3CCCC3)c3c(-c4ccc5nc(C)oc5c4)c[nH]c3n2)c(OC)c1, the viability, T/C was 10.4%.
In the case of `CC(CO)NC(=O)c1cc(-c2ccc(Cl)cc2)nn(-c2cnn(C)c2)c1=O` (stereo unspecified) + CNC(=O)c1ccc(Nc2nc(OC3CCCC3)c3c(-c4ccc5nc(C)oc5c4)c[nH]c3n2)c(OC)c1, the viability, T/C is reported as 47.4%.
For `Nc1ccn(C2OC(CO)C(O)C2(F)F)c(=O)n1` (stereo unspecified) + CN1CCN(c2cc(C(=O)Nc3cc4cc(-c5cnn(C)c5)ccc4cn3)ccn2)CC1, the viability, T/C was 0.16%.
With `COc1ccc([C@@H](O)c2cc(-c3ncnc4cc(N5CCOCC5)ccc34)c(F)cc2Cl)nn1` + CNC(=O)c1ccc(Nc2nc(OC3CCCC3)c3c(-c4ccc5nc(C)oc5c4)c[nH]c3n2)c(OC)c1 the viability, T/C was 46.8%.
With `COC1C=CCC(C)C(C)S(=O)(=O)NC(=O)c2ccc3c(c2)N(CC2CCC21)CC1(CCCc2cc(Cl)ccc21)CO3` (stereo unspecified) + CN1CCN(c2cc(C(=O)Nc3cc4cc(-c5cnn(C)c5)ccc4cn3)ccn2)CC1 the viability, T/C was 0.14%.
